Each structure is given as a SMILES string.

The assay addresses CaMKIIδ (Homo sapiens (Human), UniProt Q13557). In words: In vitro CaMKIIδ activity assay (coupled assay measuring ADP released, AC3 peptide substrate). The assay is classed as biochemical. The note with it: full length C-terminal His/Gln tagged CaMKIIδ construct, 16 nM enzyme, 25° C., compound 0.5 nM to 10 uM, duplicate. Here is the method:
An exemplary procedure for the in vitro CaMKIIδ inhibition assay, which can be used to determine the inhibitory action of compounds of the invention toward CaMKII, follows. The procedure is taken from Chao L H, et al., (2010) Nat Struct Mol Biol. 17(3): 264-272, which is incorporated herein by reference in its entirety.
The inhibition of CaMKII activity was evaluated using a coupled assay measuring ADP released following ATP hydrolysis and phosphor-transfer to the peptide substrate AC3 (KKALHRQETVDAL; SEQ ID NO: 1) (1). A full length, C-terminal His/Gln tagged CaMKIIδ construct was used (sequence in Table 3 below).
Compounds were added in 5 uL volume to wells in UV transparent 96-well plates (1/2 area well size). The final compound concentrations tested ranged from 0.5 nM to 10 uM). Assays were performed in duplicate. CaMKIIδ is added to at a final concentration of 16 nM to a mixture containing 100 mM Tris (pH 7.5), 150 mM KCl, 0.27 mM EGTA, 1.3 mM PEP, 0.2 mg/ml AC3, 6.9% (v/v) PK/LDH mixture (Sigma P0294), 0.38 mM NADH and kept on ice. 72 uL of the enzyme mixture was added to the wells containing compounds and the plate was shaken briefly and kept on ice. The assay was initiated by adding 23 uL of a mixture containing 100 mM Tris (pH 7.5), 150 mM KCl, 1.7 mM CaCl2, 48 mM MgCl2, 0.35 mM ATP and 6.7 ug/mL calmodulin. The rate of ADP released was measured as the rate of absorbance decrease at […] at 25° C. and plotted against the log of the compound concentration (FIG. 1). IC50 data were fitted using GraphPad Prism software.
The IC50 is the midpoint of a concentration-inhibition curve. On to `c1cc(-c2ccnc3[nH]c4ccccc4c23)cc(N2CCNCC2)c1` [Compound I-1, 4-(3-(piperazin-1-yl)phenyl)-9H-pyrido[2,3-b]indole], for which the half-inhibitory concentration (IC50) fell in the range of 50 to 250 nM. For `N=C(N)Nc1cccc(-c2ccnc3[nH]c4ccccc4c23)c1` [Compound I-4], the IC50 lay within 50 to 250 nM. For the compound `N=C(N)NCc1cccc(-c2ccnc3[nH]c4ccccc4c23)c1` [Compound I-5], the half-maximal inhibitory concentration (IC50) fell in the range of 250 to 1000 nM. For the compound `Nc1cccc(-c2ccnc3[nH]c4ccccc4c23)c1` [Compound I-6], the 50% inhibitory concentration (IC50) is 50 to 250 nM.

Values taken from patent US11325908B2, “CaMKII inhibitors and uses thereof” (The Johns Hopkins University, priority 2014, dated 2022).
